IC50 data for 21 molecules are collected here from patent publication US10023539B2, “Aryl-cyanoguanidine compounds” (Bayer Pharma Aktiengesellschaft, priority 2014, dated 2018).

The target of the assay is SMYD2 (Homo sapiens (Human), UniProt Q9NRG4). Briefly: Scintillation Proximity Assay (SPA) for detection of SMYD2 enzymatic inhibition. As to conditions: methylation of biotinylated p53 Peptide, 3H-SAM, full length SMYD2; read-out: IC50 [mol/l] (SPA Assay). The class given is biochemical. As for the experimental part: 1.1 Scintillation Proximity Assay (SPA) for Detection of SMYD2 Enzymatic Inhibition
Sequence of SMYD2 (Q9NRG4 whole entry): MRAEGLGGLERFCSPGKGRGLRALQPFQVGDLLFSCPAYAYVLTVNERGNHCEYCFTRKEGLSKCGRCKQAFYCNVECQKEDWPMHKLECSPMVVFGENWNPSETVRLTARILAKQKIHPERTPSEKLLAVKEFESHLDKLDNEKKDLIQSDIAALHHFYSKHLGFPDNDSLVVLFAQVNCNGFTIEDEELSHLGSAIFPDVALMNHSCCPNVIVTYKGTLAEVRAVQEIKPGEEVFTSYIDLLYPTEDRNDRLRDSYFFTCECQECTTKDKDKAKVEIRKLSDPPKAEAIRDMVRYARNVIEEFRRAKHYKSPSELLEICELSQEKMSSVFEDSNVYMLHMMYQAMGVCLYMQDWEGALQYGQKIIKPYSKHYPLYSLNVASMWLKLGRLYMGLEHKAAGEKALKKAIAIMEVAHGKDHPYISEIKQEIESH
The SMYD2 full length enzyme was produced in-house by expression (with an N-terminal 6×His tag) in E. coli and purification by affinity chromatography on a Ni-NTA Sepharose column followed by a size exclusion chromatography step on a Superdex 200 16/60 column (GE Healthcare).
To this end, 100-fold concentrated compound solutions (in DMSO) were previously prepared by serial dilution (1:3.4) of 2 mM stocks in a clear low volume 384-well source microtiter plate (Greiner Bio-One), from which 50 nl of compound solutions were transferred into a white low volume test microtiter plate from the same supplier. […] The samples were then incubated for 15 min at 22° C. to allow pre-equilibration of the putative enzyme-inhibitor complexes before the start of the methylation reaction, which was initiated by the addition of 2.5 μl 2-fold concentrated solution (in assay buffer) of titrated S-Adenosyl-L-Methionine (3H-SAM, Perkin Elmer, final concentration: 60 nM) and p53 Peptide substrate (final concentration: 1.0 μM). The resulting mixture (5 μl final volume) was shortly centrifuged (2 min., 1500 rpm) and incubated at 22° C. during 30 min. Thereupon the reaction was stopped by adding 3 μl of Streptavidin PS SPA imaging beads (Perkin Elmer, final concentration of 3.12 μg/μl) and “cold” SAM (AK Scientific, 25 μM final concentration) for non-specific binding reduction. Plates containing the stopped reaction were sealed with transparent adhesive foil (Perkin Elmer), centrifuged (2 min., 1500 rpm), and further incubated for—at least—1 h at RT (or overnight at 4° C.) in order to allow the SPA signals to develop. […] IC50 values were calculated by fitting the normalized inhibition data to a 4-parameter logistic equation using the “Screener” analysis software from Genedata.
As for `C[C@H](O)C(=O)NC1CN(/C(=N\C#N)Nc2cccc(OC(F)F)c2)N=C1c1ccc(Cl)c(Cl)c1` (mixture of isomers) [Example 1, (2S)—N-[1-{N′-cyano-N-[3-(difluoromethoxy)phenyl]carbamimidoyl}-3-(3,4-dichlorophenyl)-4,5-dihydro-1H-pyrazol-4-yl]-2-hydroxypropanamide], the IC50 worked out at 518 nM.
`CN(C(=O)CO)C1CN(/C(=N\C#N)Nc2cccc(OC(F)F)c2)N=C1c1ccc(Cl)c(Cl)c1` (racemic) [Example 2, Rac-N-[1-{N′-cyano-N-[3-(difluoromethoxy)phenyl]carbamimidoyl}-3-(3,4-dichlorophenyl)-4,5-dihydro-1H-pyrazol-4-yl]-2-hydroxy-N-methylacetamide]: the IC50 is 83.3 nM.
In the case of `CCN(C(=O)CO)C1CN(/C(=N\C#N)Nc2cccc(OC(F)(F)F)c2F)N=C1c1ccc(Cl)c(Cl)c1` (racemic) [Example 12, Rac-N-[1-{N′-cyano-N-[2-fluoro-3-(trifluoromethoxy)phenyl]carbamimidoyl}-3-(3,4-dichlorophenyl)-4,5-dihydro-1H-pyrazol-4-yl]-N-ethyl-2-hydroxyacetamide], the IC50 was determined as 138 nM.
Then `CCN(C(=O)CO)C1CN(/C(=N\C#N)Nc2ccc(F)c(OC(F)(F)F)c2)N=C1c1ccc(Cl)c(Cl)c1` (racemic) [Example 14, Rac-N-[1-{N′-cyano-N-[4-fluoro-3-(trifluoromethoxy)phenyl]carbamimidoyl}-3-(3,4-dichlorophenyl)-4,5-dihydro-1H-pyrazol-4-yl]-N-ethyl-2-hydroxyacetamide], with 147 nM; and `CCN(C(=O)CN)C1CN(/C(=N\C#N)Nc2cccc(OCCN(C)C)c2)N=C1c1ccc(Cl)c(Cl)c1` (racemic) [Example 17, Rac-N-[1-(N′-cyano-N-{3-[2-(dimethylamino)ethoxy]phenyl}carbamimidoyl)-3-(3,4-dichlorophenyl)-4,5-dihydro-1H-pyrazol-4-yl]-N-ethylglycinamide], with 59.5 nM; and `CCN(C(=O)CO)C1CN(/C(=N\C#N)Nc2ccc(F)c(OC(F)F)c2)N=C1c1ccc(Cl)c(Cl)c1` (racemic) [Example 22, Rac-N-[1-{N′-cyano-N-[3-(difluoromethoxy)-4-fluorophenyl]carbamimidoyl}-3-(3,4-dichlorophenyl)-4,5-dihydro-1H-pyrazol-4-yl]-N-ethyl-2-hydroxyacetamide], with 64.8 nM.
For `CCN(C(=O)CO)C1CN(/C(=N\C#N)Nc2cccc(OC(F)F)c2F)N=C1c1ccc(Cl)c(Cl)c1` (racemic) [Example 23, Rac-N-[1-{N′-cyano-N-[3-(difluoromethoxy)-2-fluorophenyl]carbamimidoyl}-3-(3,4-dichlorophenyl)-4,5-dihydro-1H-pyrazol-4-yl]-N-ethyl-2-hydroxyacetamide] the value was 67.4 nM; for `CCN(C(=O)CO)C1CN(/C(=N\C#N)Nc2cc(F)cc(OC(F)F)c2)N=C1c1ccc(Cl)c(Cl)c1` (racemic) [Example 24, Rac-N-[1-{N′-cyano-N-[3-(difluoromethoxy)-5-fluorophenyl]carbamimidoyl}-3-(3,4-dichlorophenyl)-4,5-dihydro-1H-pyrazol-4-yl]-N-ethyl-2-hydroxyacetamide], 63.1 nM; for `CCN(C(=O)CO)C1CN(/C(=N\C#N)Nc2cc(OC(F)(F)F)ccc2OC)N=C1c1ccc(Cl)c(Cl)c1` (racemic) [Example 26, Rac-N-[1-{N′-cyano-N-[2-methoxy-5-(trifluoromethoxy)phenyl]carbamimidoyl}-3-(3,4-dichlorophenyl)-4,5-dihydro-1H-pyrazol-4-yl]-N-ethyl-2-hydroxyacetamide], 30.6 nM.
Turning to `CCN(C(=O)CO)C1CN(/C(=N\C#N)Nc2cc(C(F)(F)F)ccc2OC(F)(F)F)N=C1c1ccc(Cl)c(Cl)c1` (racemic) [Example 28, Rac-N-[1-{N′-cyano-N-[2-(trifluoromethoxy)-5-(trifluoromethyl)phenyl]carbamimidoyl}-3-(3,4-dichlorophenyl)-4,5-dihydro-1H-pyrazol-4-yl]-N-ethyl-2-hydroxyacetamide], the IC50 is 140 nM.
Turning to `CCN(C(=O)CO)C1CN(/C(=N\C#N)Nc2cc(C(F)(F)F)ccc2OCCN2CCCC2)N=C1c1ccc(Cl)c(Cl)c1` (racemic) [Example 30, Rac-N-[r-(N′-cyano-N-[2-[2-(pyrrolidin-1-yl)ethoxy]-5-(trifluormethyl)phenyl]carbamimidoyl)-3-(3,4-dichlorophenyl)-4,5-dihydro-1H-pyrazol-4-yl]-N-ethyl-2-hydroxyacetamide], the IC50 was 15.8 nM.
As to `CCN(C(=O)CO)C1CN(/C(=N\C#N)Nc2cccc(OC(F)(F)F)c2)N=C1c1ccc(Cl)c(F)c1` (racemic) [Example 35, Rac-N-[3-(4-chloro-3-fluorophenyl)-1-{N′-cyano-N-[3-(trifluoromethoxy)phenyl]-carbamimidoyl}-4,5-dihydro-1H-pyrazol-4-yl]-N-ethyl-2-hydroxyacetamide], the IC50 was 157 nM.
For the molecule `CCN(C(=O)CO)C1CN(/C(=N\C#N)Nc2ccc(Cl)c(OC(F)F)c2)N=C1c1ccc(Cl)c(Cl)c1` (single isomer, unassigned) [Example 11.1, N-[1-{N-[4-chloro-3-(difluoromethoxy)phenyl]-N′-cyanocarbamimidoyl}-3-(3,4-dichlorophenyl)-4,5-dihydro-1H-pyrazol-4-yl]-N-ethyl-2-hydroxyacetamide], the IC50 stood at 44.1 nM.
For `CCN(C(=O)CO)C1CN(/C(=N\C#N)Nc2ccc(Cl)c(OC(F)F)c2)N=C1c1ccc(Cl)c(Cl)c1` (single isomer, unassigned) [Example 11.2, N-[1-{N-[4-chloro-3-(difluoromethoxy)phenyl]-N′-cyanocarbamimidoyl}-3-(3,4-dichlorophenyl)-4,5-dihydro-1H-pyrazol-4-yl]-N-ethyl-2-hydroxyacetamide] the value was 2980 nM.
For `CCN(C(=O)CO)C1CN(/C(=N\C#N)Nc2cccc(OC(F)(F)F)c2F)N=C1c1ccc(Cl)c(Cl)c1` (single isomer, unassigned) [Example 12.1, N-[1-{N′-cyano-N-[2-fluoro-3-(trifluoromethoxy)phenyl]carbamimidoyl}-3-(3,4-dichlorophenyl)-4,5-dihydro-1H-pyrazol-4-yl]-N-ethyl-2-hydroxyacetamide] the value was 2660 nM; for `CCN(C(=O)CO)C1CN(/C(=N\C#N)Nc2cccc(OC(F)(F)F)c2F)N=C1c1ccc(Cl)c(Cl)c1` (single isomer, unassigned) [Example 12.2, N-[1-{N′-cyano-N-[2-fluoro-3-(trifluoromethoxy)phenyl]carbamimidoyl}-3-(3,4-dichlorophenyl)-4,5-dihydro-1H-pyrazol-4-yl]-N-ethyl-2-hydroxyacetamide], 54.1 nM.
Take `CCN(C(=O)CO)C1CN(/C(=N\C#N)Nc2cc(F)cc(OC(F)F)c2)N=C1c1ccc(Cl)c(Cl)c1` (single isomer, unassigned) [Example 24.1, N-[1-{N′-cyano-N-[3-(difluoromethoxy)-5-fluorophenyl]carbamimidoyl}-3-(3,4-dichlorophenyl)-4,5-dihydro-1H-pyrazol-4-yl]-N-ethyl-2-hydroxyacetamide]: the IC50 is 2510 nM.
For the molecule `CCN(C(=O)CO)C1CN(/C(=N\C#N)Nc2cc(F)cc(OC(F)F)c2)N=C1c1ccc(Cl)c(Cl)c1` (single isomer, unassigned) [Example 24.2, N-[1-{N′-cyano-N-[3-(difluoromethoxy)-5-fluorophenyl]carbamimidoyl}-3-(3,4-dichlorophenyl)-4,5-dihydro-1H-pyrazol-4-yl]-N-ethyl-2-hydroxyacetamide], the IC50 was found to be 19.2 nM.
On to `CCN(C(=O)[C@H](C)N)C1CN(/C(=N\C#N)Nc2cccc(OC(F)F)c2)N=C1c1ccc(Cl)c(C)c1` (single isomer, unassigned) [Example 34.1, N-[3-(4-chloro-3-methylphenyl)-1-{N′-cyano-N-[3-(difluoromethoxy)phenyl]carbamimidoyl}-4,5-dihydro-1H-pyrazol-4-yl]-N-ethyl-L-alaninamide], for which the IC50 turned out to be 15400 nM.
For `CCN(C(=O)[C@H](C)N)C1CN(/C(=N\C#N)Nc2cccc(OC(F)F)c2)N=C1c1ccc(Cl)c(C)c1` (single isomer, unassigned) [Example 34.2, N-[3-(4-chloro-3-methylphenyl)-1-{N′-cyano-N-[3-(difluoromethoxy)phenyl]carbamimidoyl}-4,5-dihydro-1H-pyrazol-4-yl]-N-ethyl-L-alaninamide], the IC50 was 488 nM.
For `CCN(C(=O)[C@H](N)CC(C)C)C1CN(/C(=N\C#N)Nc2cccc(OC(F)(F)F)c2)N=C1c1ccc(Cl)c(Cl)c1` (stereo partly drawn) [Example 39, N-[1-{N′-cyano-N-[3-(trifluoromethoxy)phenyl]carbamimidoyl}-3-(3,4-dichlorophenyl)-4,5-dihydro-1H-pyrazol-4-yl]-N-ethyl-D-leucinamide] the value was 2400 nM.
